We go through 15 compounds from patent US20050131238A1, “Spermicides” (SSL International plc, priority 2001, published 2005).

The test system of one assay is human sperm. Kind of assay: Evaluation of human sperm motility (spermicidal efficacy), manual microscopy. It is filed as cell-based. The conditions noted are these: concentration giving 50% inhibition of sperm motility vs control, motility determined within 30 s by manual microscopy, ± SEM, read-out: Inhibition Human Sperm Motility (ED50). The text has this:
1. Evaluation of Human Sperm Motility (Spermicidal Efficacy)
The number of motile sperm (%) is rapidly determined (within 30s) following exposure to varying concentrations of spermicide using manual microscopy. Using non-linear regression analysis motility data from these screens is used to generate concentration response curves and subsequently an ED50 value using GraphPad Prism software (San Diego, Calif., USA). The ED50 value is the concentration of spermicide which produces 50% inhibition of sperm motility compared to control.

The subject of another assay is ME180 cells. Nature of the assay: Cell cytotoxicity (MTT cell viability assay). It is filed as cell-based. The settings on record: Homo sapiens, ME-180, concentration giving 50% inhibition of cell viability vs control, ± SEM. The procedure:
2. Determination of Cell Cytotoxicity (MTT Cell Viability Assay)
The effect of compounds on vaginal cell viability is assessed using the MTT assay. MTT is a tetrazolium salt which is converted by viable cells to an insoluble […]. This colour conversion is measured by spectrophotometry. Data is then subjected to non-linear regression analysis to generate concentration response curves and subsequently an EC50 value curves using GraphPad Prism software (San Diego, Calif., USA). The EC50 value is the concentration of spermicide which produces 50% inhibition of cell viability compared to control.

A further assay concerns sperm. The conditions noted are these: 10 mM CPhM solution, incubation for 10 minutes; decreased from 80%; cited from earlier work.

For `O=C1C=CC(=O)N1c1ccc(-c2ccc(N3C(=O)C=CC3=O)cc2)cc1` [Compound 11], the EC50 in the assay on human sperm is 1.4 µM; with ME180 cells, over 30 µM.

Turning to `CCOC(=O)c1ccc(N2C(=O)C=CC2=O)cc1` [Compound 3], the EC50 in the assay on human sperm was determined as 77 µM; in the assay with ME180 cells, 363 µM.

In the case of `O=C(O)c1ccc(N2C(=O)C=CC2=O)cc1O` [CPhM, N-(4-carboxy-3-hydroxy-phenyl)-maleimide], the “fertilising capacity of sperm” value with sperm is listed as 17%.

For `O=C1C=CC(=O)N1c1ccc(OCCOCCOCCOCCOCCOc2ccc(N3C(=O)C=CC3=O)cc2)cc1` [Compound 13], the results for the EC50 with human sperm and with ME180 cells were 4.6 µM and 125 µM, respectively.

For the compound `COC(=O)c1scc(C)c1N1C(=O)C=CC1=O` [Compound 6], the figures for the EC50 in the assay on human sperm and in the assay on ME180 cells were 26 µM and 88 µM, respectively.

Turning to `O=C1C=CC(=O)N1c1ccc2c(c1)OCCO2` [Compound 7], the EC50 was 43 µM in the assay with human sperm and 410 µM in the assay with ME180 cells.

Consider `O=C1C=CC(=O)N1c1ccccc1` [Compound 1], for which the EC50 with human sperm amounted to 32 µM; in the assay on ME180 cells, 370 µM.

Take `O=C1C=CC(=O)N1CCOCCOCCOCCN1C(=O)C=CC1=O` [Compound 12]: the EC50 in the assay with human sperm is 10.5 µM; in the assay on ME180 cells, 333 µM.

For `O=C1C=CC(=O)N1C1CCCCC1` [Compound 5], the results for the EC50 in the assay on human sperm and with ME180 cells were 294 µM and 114 µM, respectively.

Consider `O=C1C=CC(=O)N1c1ccc(OCCOCCOCCOCCOc2ccc(N3C(=O)C=CC3=O)cc2)cc1` [Compound 15], for which the EC50 came out at 5 µM in the assay on human sperm and 153 µM in the assay with ME180 cells.

Regarding `COCCOCCOCCOCCOc1ccc(N2C(=O)C=CC2=O)cc1` [Compound 14], the EC50 is 149 µM in the assay on human sperm and 285 µM with ME180 cells.

Consider `Cc1cc(N2C(=O)C=CC2=O)no1` [Compound 8], for which the EC50 was determined as 79 µM with human sperm and 858 µM in the assay on ME180 cells.

As to `N#Cc1cccc(N2C(=O)C=CC2=O)c1` [Compound 9], the EC50 in the assay on human sperm worked out at 56 µM; with ME180 cells it was 143 µM.

On to `O=C1C=CC(=O)N1c1ccc(Nc2ccccc2)cc1` [Compound 4], for which the EC50 with human sperm worked out at 31 µM; in the assay with ME180 cells it was 268 µM.

Turning to `O=C1C=CC(=O)N1CCN1C(=O)C=CC1=O` [Compound 10], the results for the EC50 in the assay on human sperm and in the assay with ME180 cells were 4 µM and 516 µM, respectively.
